From the supplement of paper PMC5908809

Columns and labels:
[1] = test system: IMC-1 (IL-2 20 ng/mL); assay: percent inhibition of viability; higher = more inhibition; conditions: 72 h
[2] = test system: normal primary NK cells, pool 3 (3 donors) (IL-2 2.5 ng/mL); assay: as above; conditions: 72 h
[3] = test system: normal primary NK cells, pool 1 (3 donors) (IL-2 2.5 ng/mL); assay: as above; conditions: 72 h
[4] = test system: KHYG-1 (IL-2 2.5 ng/mL); assay: as above; conditions: 72 h
[5] = test system: NK-YS (IL-2 2.5 ng/mL); assay: as above; conditions: 72 h
[6] = test system: normal primary NK cells, pool 1 (3 donors), resting (IL-2 0 ng/mL); assay: as above; conditions: 72 h
[7] = test system: YT (IL-2 2.5 ng/mL); assay: as above; conditions: 72 h
[8] = test system: NKL (IL-2 2.5 ng/mL); assay: as above; conditions: 72 h
[9] = test system: NK-92 (IL-2 2.5 ng/mL); assay: as above; conditions: 72 h
[10] = test system: SNK-6 (IL-2 2.5 ng/mL); assay: as above; conditions: 72 h
[11] = test system: DERL-7 (IL-2 2.5 ng/mL); assay: as above; conditions: 72 h
[12] = test system: normal primary NK cells, pool 2 (3 donors) (IL-2 2.5 ng/mL); assay: as above; conditions: 72 h
[13] = test system: KAI3 (IL-2 2.5 ng/mL); assay: as above; conditions: 72 h
[14] = test system: normal NK cells expanded with K562-aAPC; assay: as above; conditions: 72 h, IL-2 2.5 ng/mL
Description: (§1)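 Drug sensitivity and resistance testing on K562-aAPC-expanded normal NK cells: 5 concentrations (10-fold steps over a 10,000-fold range), 72 h at 37 °C, viability by CellTiter-Glo normalised to DMSO and benzethonium chloride controls; DSS from the fitted curve.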

[15] = test system: normal NK cells expanded with K562-aAPC; assay: drug sensitivity score (DSS) (DSS units); higher = more sensitive; extreme values may be limits of the assay; conditions: 72 h; IL-2 2.5 ng/mL
Description: as §1

[16] = test system: IMC-1 (IL-2 20 ng/mL); assay: as above; conditions: 72 h
[17] = test system: normal primary NK cells, pool 3 (3 donors) (IL-2 2.5 ng/mL); assay: as above; conditions: 72 h
[18] = test system: normal primary NK cells, pool 1 (3 donors) (IL-2 2.5 ng/mL); assay: as above; conditions: 72 h
[19] = test system: KHYG-1 (IL-2 2.5 ng/mL); assay: as above; conditions: 72 h
[20] = test system: NK-YS (IL-2 2.5 ng/mL); assay: as above; conditions: 72 h
[21] = test system: normal primary NK cells, pool 1 (3 donors), resting (IL-2 0 ng/mL); assay: as above; conditions: 72 h
[22] = test system: YT (IL-2 2.5 ng/mL); assay: as above; conditions: 72 h
[23] = test system: NKL (IL-2 2.5 ng/mL); assay: as above; conditions: 72 h
[24] = test system: NK-92 (IL-2 2.5 ng/mL); assay: as above; conditions: 72 h
[25] = test system: SNK-6 (IL-2 2.5 ng/mL); assay: as above; conditions: 72 h
[26] = test system: DERL-7 (IL-2 2.5 ng/mL); assay: as above; conditions: 72 h
[27] = test system: normal primary NK cells, pool 2 (3 donors) (IL-2 2.5 ng/mL); assay: as above; conditions: 72 h
[28] = test system: KAI3 (IL-2 2.5 ng/mL); assay: as above; conditions: 72 h

SMILES: NC(=O)c1ccc(I)c([N+](=O)[O-])c1 [Iniparib] (max concentration tested 10000 nM)
- percent inhibition of viability ([1]; 1 nM): 2.82%
- percent inhibition of viability ([1]; 10 nM): 5.28%
- percent inhibition of viability ([1]; 100 nM): 4.37%
- percent inhibition of viability ([1]; 1000 nM): 4.53%
- percent inhibition of viability ([1]; 10000 nM): -3.7%
- percent inhibition of viability ([2]; 1 nM): -1.14%
- percent inhibition of viability ([2]; 10 nM): -4.93%
- percent inhibition of viability ([2]; 100 nM): 1.99%
- percent inhibition of viability ([2]; 1000 nM): -1.49%
- percent inhibition of viability ([2]; 10000 nM): 19.3%
- percent inhibition of viability ([3]; 1 nM): 8.54%
- percent inhibition of viability ([3]; 10 nM): 2.74%
- percent inhibition of viability ([3]; 100 nM): 4.22%
- percent inhibition of viability ([3]; 1000 nM): 12.3%
- percent inhibition of viability ([3]; 10000 nM): 53.8%
- percent inhibition of viability ([4]; 1 nM): -2.79%
- percent inhibition of viability ([4]; 10 nM): -0.73%
- percent inhibition of viability ([4]; 100 nM): -1.94%
- percent inhibition of viability ([4]; 1000 nM): 0.34%
- percent inhibition of viability ([4]; 10000 nM): 2.04%
- percent inhibition of viability ([5]; 1 nM): -0.99%
- percent inhibition of viability ([5]; 10 nM): 0.64%
- percent inhibition of viability ([5]; 100 nM): -4.34%
- percent inhibition of viability ([5]; 1000 nM): -1.33%
- percent inhibition of viability ([5]; 10000 nM): -4.16%
- percent inhibition of viability ([6]; 1 nM): -2.43%
- percent inhibition of viability ([6]; 10 nM): -4.44%
- percent inhibition of viability ([6]; 100 nM): -6.4%
- percent inhibition of viability ([6]; 1000 nM): 24.9%
- percent inhibition of viability ([6]; 10000 nM): 78.9%
- percent inhibition of viability ([7]; 1 nM): 7.63%
- percent inhibition of viability ([7]; 10 nM): 6.75%
- percent inhibition of viability ([7]; 100 nM): 4.79%
- percent inhibition of viability ([7]; 1000 nM): 6.7%
- percent inhibition of viability ([7]; 10000 nM): 5.3%
- percent inhibition of viability ([8]; 1 nM): -0.1%
- percent inhibition of viability ([8]; 10 nM): 1.47%
- percent inhibition of viability ([8]; 100 nM): 0.26%
- percent inhibition of viability ([8]; 1000 nM): -4.81%
- percent inhibition of viability ([8]; 10000 nM): -5.47%
- percent inhibition of viability ([9]; 1 nM): 8.25%
- percent inhibition of viability ([9]; 10 nM): 4.1%
- percent inhibition of viability ([9]; 100 nM): 12.8%
- percent inhibition of viability ([9]; 1000 nM): 3.36%
- percent inhibition of viability ([9]; 10000 nM): 7.28%
- percent inhibition of viability ([10]; 1 nM): 2.09%
- percent inhibition of viability ([10]; 10 nM): 3.24%
- percent inhibition of viability ([10]; 100 nM): 11.9%
- percent inhibition of viability ([10]; 1000 nM): 10.5%
- percent inhibition of viability ([10]; 10000 nM): 23.6%
- percent inhibition of viability ([11]; 1 nM): -3.85%
- percent inhibition of viability ([11]; 10 nM): -2.44%
- percent inhibition of viability ([11]; 100 nM): 3.9%
- percent inhibition of viability ([11]; 1000 nM): -0.89%
- percent inhibition of viability ([11]; 10000 nM): 28.1%
- percent inhibition of viability ([12]; 1 nM): -8.36%
- percent inhibition of viability ([12]; 10 nM): -7.08%
- percent inhibition of viability ([12]; 100 nM): 1.43%
- percent inhibition of viability ([12]; 1000 nM): -0.1%
- percent inhibition of viability ([12]; 10000 nM): 30.1%
- percent inhibition of viability ([13]; 1 nM): 11.4%
- percent inhibition of viability ([13]; 10 nM): 8.8%
- percent inhibition of viability ([13]; 100 nM): 12.9%
- percent inhibition of viability ([13]; 1000 nM): 11.2%
- percent inhibition of viability ([13]; 10000 nM): 19%
- percent inhibition of viability ([14]; 1 nM): 7.03%
- percent inhibition of viability ([14]; 10 nM): 0.05%
- percent inhibition of viability ([14]; 100 nM): 0.33%
- percent inhibition of viability ([14]; 1000 nM): 1.63%
- percent inhibition of viability ([14]; 10000 nM): 13.4%
- drug sensitivity score [15]: 0.24
- drug sensitivity score [16]: 0
- drug sensitivity score [17]: 0.46
- drug sensitivity score [18]: 4.84
- drug sensitivity score [19]: 0
- drug sensitivity score [20]: 0
- drug sensitivity score [21]: 7.97
- drug sensitivity score [22]: 0
- drug sensitivity score [23]: 0
- drug sensitivity score [24]: 0
- drug sensitivity score [25]: 2.01
- drug sensitivity score [26]: 1.1
- drug sensitivity score [27]: 1.31
- drug sensitivity score [28]: 0

SMILES: COc1cc(Nc2ncc(F)c(Nc3ccc4c(n3)NC(=O)C(C)(C)O4)n2)cc(OC)c1OC [Tamatinib] (max concentration tested 10000 nM)
- percent inhibition of viability ([1]; 1 nM): -4.81%
- percent inhibition of viability ([1]; 10 nM): -0.95%
- percent inhibition of viability ([1]; 100 nM): -11%
- percent inhibition of viability ([1]; 1000 nM): -15.5%
- percent inhibition of viability ([1]; 10000 nM): 56.1%
- percent inhibition of viability ([2]; 1 nM): -10.4%
- percent inhibition of viability ([2]; 10 nM): -5.15%
- percent inhibition of viability ([2]; 100 nM): -13.3%
- percent inhibition of viability ([2]; 1000 nM): 2.62%
- percent inhibition of viability ([2]; 10000 nM): 54.5%
- percent inhibition of viability ([3]; 1 nM): -10.3%
- percent inhibition of viability ([3]; 10 nM): -6.76%
- percent inhibition of viability ([3]; 100 nM): 7.45%
- percent inhibition of viability ([3]; 1000 nM): 9.38%
- percent inhibition of viability ([3]; 10000 nM): 25.4%
- percent inhibition of viability ([4]; 1 nM): 1.54%
- percent inhibition of viability ([4]; 10 nM): -0.18%
- percent inhibition of viability ([4]; 100 nM): 6.88%
- percent inhibition of viability ([4]; 1000 nM): 36%
- percent inhibition of viability ([4]; 10000 nM): 99.6%
- percent inhibition of viability ([5]; 1 nM): -3.68%
- percent inhibition of viability ([5]; 10 nM): -3.13%
- percent inhibition of viability ([5]; 100 nM): -0.99%
- percent inhibition of viability ([5]; 1000 nM): 12.5%
- percent inhibition of viability ([5]; 10000 nM): 56.2%
- percent inhibition of viability ([6]; 1 nM): -31.4%
- percent inhibition of viability ([6]; 10 nM): -30.1%
- percent inhibition of viability ([6]; 100 nM): -18.1%
- percent inhibition of viability ([6]; 1000 nM): -11%
- percent inhibition of viability ([6]; 10000 nM): -3.1%
- percent inhibition of viability ([7]; 1 nM): 2.46%
- percent inhibition of viability ([7]; 10 nM): 0.67%
- percent inhibition of viability ([7]; 100 nM): 2.31%
- percent inhibition of viability ([7]; 1000 nM): 5.93%
- percent inhibition of viability ([7]; 10000 nM): 82.7%
- percent inhibition of viability ([8]; 1 nM): -1.49%
- percent inhibition of viability ([8]; 10 nM): -0.26%
- percent inhibition of viability ([8]; 100 nM): 2.39%
- percent inhibition of viability ([8]; 1000 nM): 34.2%
- percent inhibition of viability ([8]; 10000 nM): 68.3%
- percent inhibition of viability ([9]; 1 nM): -17.2%
- percent inhibition of viability ([9]; 10 nM): -0.02%
- percent inhibition of viability ([9]; 100 nM): -13.7%
- percent inhibition of viability ([9]; 1000 nM): 11%
- percent inhibition of viability ([9]; 10000 nM): 90.4%
- percent inhibition of viability ([10]; 1 nM): 2.85%
- percent inhibition of viability ([10]; 10 nM): 9.06%
- percent inhibition of viability ([10]; 100 nM): -0.26%
- percent inhibition of viability ([10]; 1000 nM): -7.25%
- percent inhibition of viability ([10]; 10000 nM): 83%
- percent inhibition of viability ([11]; 1 nM): -3.21%
- percent inhibition of viability ([11]; 10 nM): -4.44%
- percent inhibition of viability ([11]; 100 nM): -1.63%
- percent inhibition of viability ([11]; 1000 nM): 29.5%
- percent inhibition of viability ([11]; 10000 nM): 38.5%
- percent inhibition of viability ([12]; 1 nM): -10%
- percent inhibition of viability ([12]; 10 nM): -7.66%
- percent inhibition of viability ([12]; 100 nM): -17.3%
- percent inhibition of viability ([12]; 1000 nM): 5.93%
- percent inhibition of viability ([12]; 10000 nM): 49.9%
- percent inhibition of viability ([13]; 1 nM): 4.14%
- percent inhibition of viability ([13]; 10 nM): 8.73%
- percent inhibition of viability ([13]; 100 nM): 12.3%
- percent inhibition of viability ([13]; 1000 nM): 52.5%
- percent inhibition of viability ([13]; 10000 nM): 82.4%
- percent inhibition of viability ([14]; 1 nM): 0.12%
- percent inhibition of viability ([14]; 10 nM): 1.7%
- percent inhibition of viability ([14]; 100 nM): 1.14%
- percent inhibition of viability ([14]; 1000 nM): 27.4%
- percent inhibition of viability ([14]; 10000 nM): 36.2%
- drug sensitivity score [15]: 5
- drug sensitivity score [16]: 2.27
- drug sensitivity score [17]: 3.27
- drug sensitivity score [18]: 1.62
- drug sensitivity score [19]: 9.92
- drug sensitivity score [20]: 5.03
- drug sensitivity score [21]: 0
- drug sensitivity score [22]: 5.49
- drug sensitivity score [23]: 7.84
- drug sensitivity score [24]: 6.83
- drug sensitivity score [25]: 4.09
- drug sensitivity score [26]: 5.34
- drug sensitivity score [27]: 3.61
- drug sensitivity score [28]: 11.7
